# In PubChem BioAssay AID2060605 (Molecular Pharmacology Branch, DTP, NCI, 2025):
# Tested on: 947758-054-R-J2-PDC spheroid growth, percent test/control
# Experiment: Anticancer human tumor 947758-054-R-J2-PDC patient-derived colon adenocarcinoma cell line growth inhibition [CLK]
# Conditions: spheroids with HUVEC and MSC; for IC50: curve of first compound; for viability, T/C: stronger effect = lower value
# Method in brief: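 Multi-cell-type spheroids combined patient-derived tumor cells with HUVEC endothelial cells and human mesenchymal stem cells. Paired agents were dosed in half-log steps down from about clinical Cmax, or from 10 microM where Cmax was unknown.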
# [1] = second compound 0.0316 µM, first compound 0.0316 µM
# [2] = second compound 0.0316 µM, first compound 0.1 µM
# [3] = second compound 0.0316 µM, first compound 0.316 µM
# [4] = second compound 0.0316 µM, first compound 1 µM
# [5] = second compound 0.0316 µM, first compound 3.16 µM
# [6] = second compound 0.0316 µM, first compound 10 µM
# [7] = second compound 0.1 µM, first compound 0.0316 µM
# [8] = second compound 0.1 µM, first compound 0.1 µM
# [9] = second compound 0.1 µM, first compound 0.316 µM
# [10] = second compound 0.1 µM, first compound 1 µM
# [11] = second compound 0.1 µM, first compound 3.16 µM
# [12] = second compound 0.1 µM, first compound 10 µM
# [13] = second compound 0.316 µM, first compound 0.0316 µM
# [14] = second compound 0.316 µM, first compound 0.1 µM
# [15] = second compound 0.316 µM, first compound 0.316 µM
# [16] = second compound 0.316 µM, first compound 1 µM
# [17] = second compound 0.316 µM, first compound 3.16 µM
# [18] = second compound 0.316 µM, first compound 10 µM
# [19] = second compound 1 µM, first compound 0.0316 µM
# [20] = second compound 1 µM, first compound 0.1 µM
# [21] = second compound 1 µM, first compound 0.316 µM
# [22] = second compound 1 µM, first compound 1 µM
# [23] = second compound 1 µM, first compound 3.16 µM
# [24] = second compound 1 µM, first compound 10 µM
# [25] = second compound 3.16 µM, first compound 0.0316 µM
# [26] = second compound 3.16 µM, first compound 0.1 µM
# [27] = second compound 3.16 µM, first compound 0.316 µM
# [28] = second compound 3.16 µM, first compound 1 µM
# [29] = second compound 3.16 µM, first compound 3.16 µM
# [30] = second compound 3.16 µM, first compound 10 µM
# [31] = second compound 10 µM, first compound 0.0316 µM
# [32] = second compound 10 µM, first compound 0.1 µM
# [33] = second compound 10 µM, first compound 0.316 µM
# [34] = second compound 10 µM, first compound 1 µM
# [35] = second compound 10 µM, first compound 3.16 µM
# [36] = second compound 10 µM, first compound 10 µM
# 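Also: spheroids exposed to compounds for one week before readout.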
# 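For viability, T/C in this document: 100% = DMSO vehicle control wells.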
compound,measurement,setting,value
O=c1[nH]cc(F)c(=O)[nH]1 + CN1CCN(c2cc(C(=O)Nc3cc4cc(-c5cnn(C)c5)ccc4cn3)ccn2)CC1,IC50,second compound 0.0316 µM,8260 nM
same,IC50,second compound 0.1 µM,6150 nM
same,IC50,second compound 0.316 µM,< 31.6 nM
same,IC50,second compound 1 µM,< 31.6 nM
same,IC50,second compound 3.16 µM,< 31.6 nM
same,IC50,second compound 10 µM,< 31.6 nM
same,"viability, T/C",[1],124%
same,"viability, T/C",[2],113%
same,"viability, T/C",[3],103%
same,"viability, T/C",[4],143%
same,"viability, T/C",[5],83.8%
same,"viability, T/C",[6],43.2%
same,"viability, T/C",[7],150%
same,"viability, T/C",[8],167%
same,"viability, T/C",[9],159%
same,"viability, T/C",[10],166%
same,"viability, T/C",[11],69.1%
same,"viability, T/C",[12],36%
same,"viability, T/C",[13],4.49%
same,"viability, T/C",[14],7.16%
same,"viability, T/C",[15],4.59%
same,"viability, T/C",[16],5.49%
same,"viability, T/C",[17],4.38%
same,"viability, T/C",[18],3.92%
same,"viability, T/C",[19],0.14%
same,"viability, T/C",[20],0.31%
same,"viability, T/C",[21],1.1%
same,"viability, T/C",[22],0.1%
same,"viability, T/C",[23],2.13%
same,"viability, T/C",[24],0.12%
same,"viability, T/C",[25],0.24%
same,"viability, T/C",[26],1.5%
same,"viability, T/C",[27],0.14%
same,"viability, T/C",[28],0.16%
same,"viability, T/C",[29],0.18%
same,"viability, T/C",[30],2.35%
same,"viability, T/C",[31],0.67%
same,"viability, T/C",[32],0.21%
same,"viability, T/C",[33],0.25%
same,"viability, T/C",[34],0.21%
same,"viability, T/C",[35],1.51%
same,"viability, T/C",[36],0.31%
COc1ccc([C@@H](O)c2cc(-c3ncnc4cc(N5CCOCC5)ccc34)c(F)cc2Cl)nn1 + CNC(=O)c1ccc(Nc2nc(OC3CCCC3)c3c(-c4ccc5nc(C)oc5c4)c[nH]c3n2)c(OC)c1,IC50,second compound 0.0316 µM,1900 nM
same,IC50,second compound 0.1 µM,899 nM
same,IC50,second compound 0.316 µM,874 nM
same,IC50,second compound 1 µM,116 nM
same,IC50,second compound 3.16 µM,< 31.6 nM
same,IC50,second compound 10 µM,< 31.6 nM
same,"viability, T/C",[1],82.4%
same,"viability, T/C",[2],63.7%
same,"viability, T/C",[3],74.7%
same,"viability, T/C",[4],49.5%
same,"viability, T/C",[5],48.6%
same,"viability, T/C",[6],32.8%
same,"viability, T/C",[7],91.8%
same,"viability, T/C",[8],81.3%
same,"viability, T/C",[9],62.9%
same,"viability, T/C",[10],50.4%
same,"viability, T/C",[11],33.8%
same,"viability, T/C",[12],25.9%
same,"viability, T/C",[13],80.1%
same,"viability, T/C",[14],66.8%
same,"viability, T/C",[15],58.2%
same,"viability, T/C",[16],53.4%
same,"viability, T/C",[17],34.6%
same,"viability, T/C",[18],17.7%
same,"viability, T/C",[19],59%
same,"viability, T/C",[20],51.9%
same,"viability, T/C",[21],40%
same,"viability, T/C",[22],31.6%
same,"viability, T/C",[23],24.2%
same,"viability, T/C",[24],6.15%
same,"viability, T/C",[25],38%
same,"viability, T/C",[26],32.4%
same,"viability, T/C",[27],37.6%
same,"viability, T/C",[28],24.1%
same,"viability, T/C",[29],14.1%
same,"viability, T/C",[30],7.87%
same,"viability, T/C",[31],30.4%
same,"viability, T/C",[32],31.9%
same,"viability, T/C",[33],31%
same,"viability, T/C",[34],21.5%
same,"viability, T/C",[35],8.56%
same,"viability, T/C",[36],5.76%
